The values that follow come from patent US20240066137A1, “NOVEL PROTEIN CONJUGATE, AND USE THEREOF FOR PREVENTING OR TREATING NONALCOHOLIC STEATOHEPATITIS, OBESITY AND DIABETES” (ONEGENE BIOTECHNOLOGY INC., priority 2020, published 2024).

Like-named read-outs stand apart in the source and are kept apart here.

One experiment deals with GLP-1R (GLP-1 acceptor) (Homo sapiens, UniProt P43220). The experiment is described as follows: cAMP accumulation assay, GLP-1 acceptor overexpressing cells.
The subject of experiment [1] is C57BL/6J mice in which fatty liver was induced by feeding MCD. Nature of the experiment: In-vivo efficacy against non-alcoholic steatohepatitis (MCD diet mice). Also on record: species or system mouse; ALT / Hepatic TGF-β / Hepatic Triglyceride: unit not given here. The conditions noted are these: for ALT: dulaglutide 2 nmol/kg s.c. 1 time/2 days, 14 times; for Hepatic TGF-β: liver tissue ELISA; for Hepatic Triglyceride / Lobular inflammation score (Lobular inflammation) / NAS (NAFLD Activity Score) / Steatosis score (Steatosis): liver tissue. From the text:
The MCD mouse model is the most typically used method for efficacy testing against non-alcoholic steatohepatitis, and it is known that the histological appearance of the induced liver tissue from week 2 to week 4 is histologically similar to that of human non-alcoholic steatohepatitis. There are many precedent cases in which a number of pharmaceutical companies and academia conducted tests with various substances.
Fatty liver was induced by feeding MCD to male C57BL/6J mice for 8 weeks, and then the mice were divided into 6 groups shown in Table 7 below, and drug administration was performed for 4 weeks. As a comparative substance, two currently commercially available drugs, liraglutide (Saxenda) and dulaglutide (Trulycity), were used. The administered composition was repeatedly administered subcutaneously using a disposable syringe according to each administration cycle. […] The normal control group was fed with MCS (Methionine and Choline Sufficient L-Amino Acid Diet).
During the 4-week administration period, general symptoms and behavior were observed, and body weight was measured once a week after the start of administration and on the day of tissue extraction. Blood collection and liver tissue extraction were performed on the day of the end of observation, and blood was subjected to a hematological-biochemical test, and the extracted liver tissue was subjected to a histopathological test.
Alanine aminotransferase (ALT), which is used as the most basic indicator of liver disease, was measured through a hematological-biochemical test, and the results are shown in Table 8 below and FIG. 21.
In addition, histopathological test was performed by observation through H&E and Masson's trichrome staining, and the results are shown in FIG. 23. In the case of non-alcoholic steatohepatitis, steatosis and inflammation in lobules occurs, and inflammatory cells can be identified by tissue staining.
In addition, based on the evaluation criteria shown in Table 10 below, steatosis score, lobular inflammation score, and NAS (NAFLD activity score) were evaluated.
In addition, triglyceride accumulation in the liver tissue was analyzed using the Triglyceride Assay Kit, and the results are shown in Table 15 below and FIG. 28.
The mice were divided into 4 groups shown in Table 16 below, and the experiment was conducted in the same manner as in Test Example 4 above. As a comparative substance, the currently commercially available dulaglutide (Trulycity) was used.
Background: An ELISA detects its analyte on a solid surface through an enzyme-linked reagent.

The target of the next experiment is NF-κB activity by IL-1β. Nature of the experiment: NF-κB reporter gene luciferase assay. The experiment is classed as cell-based. The conditions noted are these: IL-1β stimulated. Here is the method:
The cells were cultured to 70-80% full in a T-75 flask. The medium was removed and washed once with 5 mL of the pre-warmed PBS. PBS was removed, and 1 mL of TryPLE Express was added, and incubated for 5 minutes in an incubator at 37° C. and 5% CO2, and the cells were detached. It was mixed with 4 mL of assay medium (10% FBS, 1% antibiotic in DMEM), and the mixture was transferred to a 15 mL tube, centrifuged at 1,000 rpm for 3 minutes, and then again released in 5 mL of assay medium. The number of cells was counted, and the concentration was allowed to be 500,000 cells/mL. It was transferred to a reservoir, and 40 μL per well was dispensed into a white 96-well half-area cell culture plate using a multi-channel pipette (20,000 cells/well). Only 40 μL of assay medium was dispensed into the blank well. The cells were incubated in an incubator at 37° C. and 5% CO2 for 24 hours to allow to be attached.
5 μL of each of the reference (10×) and sample (10×) prepared by 4-fold serial dilution was dispensed in duplicate. Thereafter, 5 μL of 50 pM IL-1β (10×) was dispensed and incubated in an incubator at 5% CO2 for 4 hours. 50 μL of ONE-Glo reagent (Promega, Cat. No. E6120) was each dispensed and cultured at room temperature for 5 minutes, and then the luminescence was measured with a Synergy Neo2 instrument. At this time, before treatment with ONE-Glo reagent, the plate was removed from the incubator for 15 minutes and allowed to reach room temperature.
The Delta RLU (relative luminescence unit) (ΔRLU) was calculated as follows.
ΔRLU=RLUsample−RLUblank=Signal−background luminescence
The IC50 values were obtained as ΔRLU by each concentration using GraphPad Prism 8, as follows (curve-fitting of the log (antagonist) vs. normalized response−variable slope equation).
In order to test the ability of the native IL-1RA and the IL-1RA analogue to inhibit NF-κB activity by IL-1β at the cellular level (in vitro), the NF-κB reporter gene luciferase assay was performed in the same manner as in Test Example 3.
(In general: In a reporter assay the amount or activity of a reporter protein is the signal.)

Where [2] appears, read: Test Example 4, dulaglutide 2 nmol/kg.
Setting [3] is: Test Example 5, dulaglutide 2 nmol/kg.

Sequence of GLP-1R (GLP-1 acceptor) (P43220 24-463): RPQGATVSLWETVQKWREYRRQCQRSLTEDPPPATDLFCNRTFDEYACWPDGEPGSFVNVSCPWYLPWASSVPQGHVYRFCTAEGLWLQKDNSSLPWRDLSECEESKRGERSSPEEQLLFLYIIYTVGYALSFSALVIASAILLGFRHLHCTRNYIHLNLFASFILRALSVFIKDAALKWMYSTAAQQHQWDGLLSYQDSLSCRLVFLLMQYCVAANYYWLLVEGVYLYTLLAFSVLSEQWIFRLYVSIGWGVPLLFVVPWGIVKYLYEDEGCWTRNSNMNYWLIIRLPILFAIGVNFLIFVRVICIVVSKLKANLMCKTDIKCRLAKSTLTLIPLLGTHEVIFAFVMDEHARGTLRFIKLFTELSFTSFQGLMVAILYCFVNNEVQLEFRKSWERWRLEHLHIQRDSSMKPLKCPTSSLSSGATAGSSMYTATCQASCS

As for Dulaglutide [reference compound], a half-maximal response with GLP-1R (GLP-1 acceptor) (Test Example 9 screening, Cell line: Stable) (EC50) required 1.45 ± 0.45 pM. Also, the EC50 (usually the concentration at which the effect is half-maximal) with GLP-1R (GLP-1 acceptor) (read-out: EC50 GLP-1R, 1, Test Example 1, run 1) came to 1.23 pM. Further, the 50% effective concentration (EC50) in the experiment with GLP-1R (GLP-1 acceptor) (read-out: EC50 GLP-1R, Mean, Test Example 1, mean of 2 runs) was 1.07 pM. The ALT in experiment [1] (Test Example 4, blood) came to 220.5. Also, in experiment [1] (setting [2]), the “Hepatic TGF-β” value is 159.60, the “Hepatic Triglyceride” value is given as 40.78, the “Lobular inflammation score (Lobular inflammation)” value is listed as 1.5 and the “NAS (NAFLD Activity Score)” value is reported as 3.4. Also, the “Steatosis score (Steatosis)” value in experiment [1] (setting [2]) is 1.9. In addition, the AST/ALT value in experiment [1] (Test Example 5, blood, dulaglutide 2 nmol/kg) was determined as 0.76. Further, the ALT in experiment [1] (Test Example 5, blood) was 246.8. For the same substance, in experiment [1] (setting [3]), the “Hepatic TGF-β” value amounted to 165.3, the “Hepatic Triglyceride” value amounted to 36.08, the “Lobular inflammation score (Lobular inflammation)” value was determined as 1.6 and the “NAS (NAFLD Activity Score)” value is reported as 3.4. Further, in experiment [1] (setting [3]), the “Steatosis score (Steatosis)” value worked out at 1.8.
rhIL-1RA: native IL-1RA, SEQ ID NO: 27: the IC50 (commonly the midpoint of a concentration-inhibition curve) came out at 0.0475 nM on NF-κB activity by IL-1β (Test Example 3, mean of 4 runs, read-out: IC50, Mean); 0.0399 nM at NF-κB activity by IL-1β (Test Example 3, run 1, read-out: IC50, 1); 0.0515 nM at NF-κB activity by IL-1β (Test Example 3, run 2, read-out: IC50, 2); 0.0466 nM on NF-κB activity by IL-1β (Test Example 3, run 3, read-out: IC50, 3); 0.0519 nM at NF-κB activity by IL-1β (Test Example 3, run 4, read-out: IC50, 4); 0.0686 ± 0.00771 nM at NF-κB activity by IL-1β (Test Example 9 screening, read-out: IC50).
